Measured values: PMC8274818 (Bioorganic & medicinal chemistry, 2019)
≈ marks a conversion by molar mass, not a printed value.

Assay: Kinetic solubility assay
Format: physicochemical
Conditions: phosphate buffer, pH 7.4, aqueous buffer, kinetic from dmso stock

Row | solubility kinetic at 6 h [µg/mL] | Structure (SMILES)
1 | 27.7 ± 4.49 (≈ 130 µM) | Nc1ccc(/N=N/c2ccccc2)c(N)n1 [phenazolpyridine]
2 | < 1 | CCCSc1ccc2nc(NC(=O)OC)[nH]c2c1 [Albendazole, albendazole]
